Results as given in US20240025863A1, “SOS1 PROTEIN DEGRADERS, PHARMACEUTICAL COMPOSITIONS THEREOF, AND THEIR THERAPEUTIC APPLICATIONS” (BioTheryX, Inc., priority 2020, published 2024).

Columns and labels:
Type in all cases: cell-based
Lovo cells (G13D) = assay: Cell viability assay (CellTiter-Glo), Lovo cells; conditions: Homo sapiens, 72 h; Lovo cells, 3 days incubation, CellTiter-Glo luminescence; read-out: Inhibition of Cancerous Cells IC50 Lovo (G13D)
Method: (§1) H358, H23, SW48, and AsPC-1 cells were cultured in RPMI 1640 media supplemented with 10% fetal bovine serum, streptomycin, and penicillin. Lovo and SW480 cells were cultured in DMEM media supplemented with 10% fetal bovine serum, streptomycin, and penicillin. The cell lines were plated in their respective medium supplemented with 2.5% fetal bovine serum, streptomycin, and penicillin. All cell lines were plated in white walled 96-well plates at 2,000 cells/well or 384-well plates at 500 cells/well, except Lovo, which were plated at 4,000 or 1,000 cells/well, respectively. The cells were incubated in DMSO (control) or a compound for 3 days at 37° C. under 5% CO2. A CELLTITER-GLO® reagent (100 μL) was then added to each well. After a 10 min incubation with shaking, luminescence was measured using an ENVISION® multimode plate reader.

SW48 cells (wt) = assay: Cell viability assay (CellTiter-Glo), SW48 cells; conditions: Homo sapiens, 72 h; SW48 cells, 3 days incubation, CellTiter-Glo luminescence; read-out: Inhibition of Cancerous Cells IC50 SW48 (wt)
Method: as §1

SW480 cells (G12V) = assay: Cell viability assay (CellTiter-Glo), SW480 cells; conditions: Homo sapiens, 72 h; SW480 cells, 3 days incubation, CellTiter-Glo luminescence; read-out: Inhibition of Cancerous Cells IC50 SW480 (G12V)
Method: as §1

H358 cells (G12C) = assay: Cell viability assay (CellTiter-Glo), H358 cells; conditions: Homo sapiens, NCI-H358, 72 h; H358 cells, 3 days incubation, CellTiter-Glo luminescence; read-out: Inhibition of Cancerous Cells IC50 H358 (G12C)
Method: as §1

Row | SMILES | IC50 (Lovo cells (G13D)) | IC50 (SW48 cells (wt)) | IC50 (SW480 cells (G12V)) | IC50 (H358 cells (G12C))
1 | COc1cc2c(N[C@H](C)c3cccc(Br)c3)nc(C)nc2cc1OCCCCCN1CCN(C(=O)CNc2cc(F)cc3c2CN(C2CCC(=O)NC2=O)C3=O)CC1 (stereo partly drawn) [Compound A55, 3-(4-((2-(4-(5-((4-(((R)-1-(3-Bromophenyl)ethyl)amino)-6-methoxy-2-methyl-quinazolin-7-yl)oxy)pentyl)piperazin-1-yl)-2-oxoethyl)amino)-6-fluoro-1-oxoisoindolin-2-yl)piperidine-2,6-dione] | 0.64 µM | 1.4 µM | 1.8 µM | 2 µM
2 | CNCc1ccccc1-c1csc([C@H](C)Nc2nc(C)nc3c(CCCCCCCN4CCC(c5cc(F)cc6c5CN(C5CCC(=O)NC5=O)C6=O)CC4)c(OC)c(OC)cc23)c1 (stereo partly drawn) [Compound A56, 3-(4-(1-(7-(6,7-Dimethoxy-2-methyl-4-(((S)-1-(4-(2-((methylamino)methyl)-phenyl)thiophen-2-yl)ethyl)amino)quinazolin-8-yl)heptyl)piperidin-4-yl)-6-fluoro-1-oxoisoindolin-2-yl)piperidine-2,6-dione] | 0.15 µM | 0.19 µM | 0.26 µM | 0.36 µM
3 | COc1cc2c(N[C@H](C)c3cccc(Br)c3)nc(C)nc2cc1OCCCCN1CCN(C(=O)CNc2cc(F)cc3c2CN(C2CCC(=O)NC2=O)C3=O)CC1 (stereo partly drawn) [Compound A57, 3-(4-((2-(4-(4-((4-(((R)-1-(3-Bromophenyl)ethyl)amino)-6-methoxy-2-methyl-quinazolin-7-yl)oxy)butyl)piperazin-1-yl)-2-oxoethyl)amino)-6-fluoro-1-oxoisoindolin-2-yl)piperidine-2,6-dione] | 0.9 µM | 2.9 µM | 5.2 µM | 3.3 µM
4 | COc1cc2c(N[C@H](C)c3cccc(Br)c3)nc(C)nc2cc1OCCCCCCCCN1CCC(c2cc(F)cc3c2CN(C2CCC(=O)NC2=O)C3=O)CC1 (stereo partly drawn) [Compound A58, 3-(4-(1-(8-((4-(((R)-1-(3-Bromophenyl)ethyl)amino)-6-methoxy-2-methyl-quinazolin-7-yl)oxy)octyl)piperidin-4-yl)-6-fluoro-1-oxoisoindolin-2-yl)piperidine-2,6-dione] | 0.3 µM | 0.42 µM | 0.36 µM | 1.2 µM
5 | COc1cc2c(N[C@H](C)c3cccc(Br)c3)nc(C)nc2cc1OCCCCCCNC(=O)[C@H](CC(C)C)NC(=O)[C@@H](O)[C@H](N)Cc1ccccc1 [Compound B6, (S)-2-((2S,3R)-3-amino-2-hydroxy-4-phenylbutanamido)-N-(6-((4-(((R)-1-(3-bromophenyl)ethyl)amino)-6-methoxy-2-methylquinazolin-7-yl)oxy)hexyl)-4-methylpentanamide] | 1 µM | 0.68 µM | 0.66 µM | 1.2 µM
6 | COc1cc2c(N[C@H](C)c3cccc(Br)c3)nc(C)nc2cc1OCCCCCCCCCCNC(=O)[C@H](CC(C)C)NC(=O)[C@@H](O)[C@H](N)Cc1ccccc1 [Compound B8, (S)-2-((2S,3R)-3-Amino-2-hydroxy-4-phenylbutanamido)-N-(10-((4-(((R)-1-(3-bromophenyl)ethyl)amino)-6-methoxy-2-methylquinazolin-7-yl)oxy)decyl)-4-methylpentanamide] | 0.39 µM | 1 µM | 0.55 µM | 1.2 µM

The remaining lines, values ahead:

Row | IC50 (Lovo cells (G13D)) | IC50 (SW48 cells (wt)) | IC50 (SW480 cells (G12V)) | IC50 (H358 cells (G12C)) | SMILES
7 | > 10 µM | > 10 µM | > 10 µM | > 10 µM | COc1ccc(C2=N[C@@H](c3ccc(Cl)cc3)[C@@H](c3ccc(Cl)cc3)N2C(=O)N2CCN(CC(=O)NCCCCCCOc3cc4nc(C)nc(N[C@H](C)c5cccc(Br)c5)c4cc3OC)C(=O)C2)c(OC(C)C)c1 [Compound C1, 2-(4-((4S,5R)-4,5-Bis(4-chlorophenyl)-2-(2-isopropoxy-4-methoxyphenyl)-4,5-dihydro-1H-imidazole-1-carbonyl)-2-oxopiperazin-1-yl)-N-(6-((4-(((R)-1-(3-bromophenyl)-ethyl)amino)-6-methoxy-2-methylquinazolin-7-yl)oxy)hexyl)acetamide]
8 | > 10 µM | > 10 µM | > 10 µM | > 10 µM | COc1ccc(C2=N[C@@H](c3ccc(Cl)cc3)[C@@H](c3ccc(Cl)cc3)N2C(=O)N2CCN(CC(=O)NCCCCCCCCOc3cc4nc(C)nc(N[C@H](C)c5cccc(Br)c5)c4cc3OC)C(=O)C2)c(OC(C)C)c1 [Compound C2, 2-(4-((4S,5R)-4,5-bis(4-chlorophenyl)-2-(2-isopropoxy-4-methoxyphenyl)-4,5-dihydro-1H-imidazole-1-carbonyl)-2-oxopiperazin-1-yl)-N-(8-((4-(((R)-1-(3-bromophenyl)-ethyl)amino)-6-methoxy-2-methylquinazolin-7-yl)oxy)octyl)acetamide]
9 | > 10 µM | > 10 µM | > 10 µM | > 10 µM | COc1ccc(C2=N[C@@H](c3ccc(Cl)cc3)[C@@H](c3ccc(Cl)cc3)N2C(=O)N2CCN(CC(=O)NCCCCCCCCCCOc3cc4nc(C)nc(N[C@H](C)c5cccc(Br)c5)c4cc3OC)C(=O)C2)c(OC(C)C)c1 [Compound C3, 2-(4-((4S,5R)-4,5-Bis(4-chlorophenyl)-2-(2-isopropoxy-4-methoxyphenyl)-4,5-dihydro-1H-imidazole-1-carbonyl)-2-oxopiperazin-1-yl)-N-(10-((4-(((R)-1-(3-bromophenyl)-ethyl)amino)-6-methoxy-2-methylquinazolin-7-yl)oxy)decyl)acetamide]
10 | > 10 µM | > 10 µM | > 10 µM | > 10 µM | COc1ccc(C2=N[C@@H](c3ccc(Cl)cc3)[C@@H](c3ccc(Cl)cc3)N2C(=O)N2CCN(CC(=O)NCCCCCCCCOc3cc4nc(C)nc(N[C@H](C)c5cccc(Br)c5)c4cc3OC)CC2)c(OC(C)C)c1 [Compound C4, 2-(4-((4S,5R)-4,5-bis(4-chlorophenyl)-2-(2-isopropoxy-4-methoxyphenyl)-4,5-dihydro-1H-imidazole-1-carbonyl)piperazin-1-yl)-N-(8-((4-(((R)-1-(3-bromophenyl)ethyl)-amino)-6-methoxy-2-methylquinazolin-7-yl)oxy)octyl)acetamide]
11 | > 10 µM | > 10 µM | > 10 µM | > 10 µM | COc1ccc(C2=N[C@@H](c3ccc(Cl)cc3)[C@@H](c3ccc(Cl)cc3)N2C(=O)N2CCN(CC(=O)NCCCCCCCCCCOc3cc4nc(C)nc(N[C@H](C)c5cccc(Br)c5)c4cc3OC)CC2)c(OC(C)C)c1 [Compound C5, 2-(4-((4S,5R)-4,5-Bis(4-chlorophenyl)-2-(2-isopropoxy-4-methoxyphenyl)-4,5-dihydro-1H-imidazole-1-carbonyl)piperazin-1-yl)-N-(10-((4-(((R)-1-(3-bromophenyl)ethyl)-amino)-6-methoxy-2-methylquinazolin-7-yl)oxy)decyl)acetamide]
12 | > 10 µM | > 10 µM | > 10 µM | > 10 µM | COc1ccc(C2=N[C@@H](c3ccc(Cl)cc3)[C@@H](c3ccc(Cl)cc3)N2C(=O)N2CCN(CC(=O)NCCCCCCCCCCCCOc3cc4nc(C)nc(N[C@H](C)c5cccc(Br)c5)c4cc3OC)CC2)c(OC(C)C)c1 [Compound C6, 2-(4-((4S,5R)-4,5-Bis(4-chlorophenyl)-2-(2-isopropoxy-4-methoxyphenyl)-4,5-dihydro-1H-imidazole-1-carbonyl)piperazin-1-yl)-N-(12-((4-(((R)-1-(3-bromophenyl)ethyl)-amino)-6-methoxy-2-methylquinazolin-7-yl)oxy)dodecyl)acetamide]
